Data published in ChEMBL document CHEMBL1649193, “Statins as potential antimalarial drugs: low relative potency and lack of synergy with conventional antimalarial drugs” (Antimicrob Agents Chemother, 2009).

How the values were obtained:
Format in all cases: functional, organism-based
Plasmodium falciparum [1] = experiment: Antimalarial activity against chloroquine-sensitive Plasmodium falciparum 3D7 assessed as Plasmodium lactate dehydrogenase release after 48 hrs by colorimetry; conditions: 3D7, 48 h
Plasmodium falciparum [2] = experiment: Antimalarial activity against chloroquine-resistant Plasmodium falciparum Dd2 assessed as Plasmodium lactate dehydrogenase release after 48 hrs by colorimetry; conditions: Dd2, 48 h
Plasmodium falciparum [3] = experiment: Antimalarial activity against chloroquine-resistant Plasmodium falciparum E8B assessed as Plasmodium lactate dehydrogenase release after 48 hrs by colorimetry

SMILES | IC50 (Plasmodium falciparum [1]) [µM] | IC90 (Plasmodium falciparum [1]) [µM] | IC50 (Plasmodium falciparum [2]) [µM] | IC90 (Plasmodium falciparum [2]) [µM] | IC50 (Plasmodium falciparum [3]) [µM] | IC90 (Plasmodium falciparum [3]) [µM]
CC(C)c1nc(N(C)S(C)(=O)=O)nc(-c2ccc(F)cc2)c1/C=C/[C@@H](O)C[C@@H](O)CC(=O)O [ROSUVASTATIN] | 80 | 205 | 80 | 232 | 80 | 232
CC(C)c1c(C(=O)Nc2ccccc2)c(-c2ccccc2)c(-c2ccc(F)cc2)n1CC[C@@H](O)C[C@@H](O)CC(=O)O [ATORVASTATIN] | 25 | 68 | 17 | 39 | 17 | 39
